Structures can show the parent of a compound that is named as a salt. Where two headings read alike, the source gives them in different places.
Experiments:
[1] = rcm bond, 1,2-dichloroethane
[2] = rcm bond, 1,2-DCE
[3] = test system: HCV replicon in Huh7 cells; assay: HCV replicon cell-based assay (replicon FRET assay); set-up: species or system HCV strain 1B; settings: Hepatitis C virus, Huh-7, HCV replicon cell assay; EC50 ranges
Outline: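 Huh7 cells carrying a genotype 1b subgenomic replicon (neo, NS3–NS5B) were treated with compound for 4 days at 37 °C in 0.5% DMSO final. Lysates with 10 μM RET S1 FRET peptide and 150 mM NaCl were read kinetically at 340/490 nm over 21 cycles. EC50 was derived as for the enzyme IC50.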

[4] = molecular target: T1, HCV NS3/4A protease complex, BMS strain (genotype 1a) (Hepatitis C virus genotype 1a, UniProt P27958, C1454S/C1711G); assay: Recombinant HCV NS3/4A protease complex FRET peptide assay (BMS strain); assay type: biochemical; settings: IC50, HCV NS3/4A protease FRET assay in vitro; IC50 ranges
T1 construct: recombinant HCV NS3/4A protease complex (amino'acids 1027 to 1711); inferred from the pET21b vector and Ni-NTA purification; made in house; host or cells: Escherichia coli BL21 (DE3), pET21b
T1 sequence (P27958 1027-1711 C1454S/C1711G, one chain of several): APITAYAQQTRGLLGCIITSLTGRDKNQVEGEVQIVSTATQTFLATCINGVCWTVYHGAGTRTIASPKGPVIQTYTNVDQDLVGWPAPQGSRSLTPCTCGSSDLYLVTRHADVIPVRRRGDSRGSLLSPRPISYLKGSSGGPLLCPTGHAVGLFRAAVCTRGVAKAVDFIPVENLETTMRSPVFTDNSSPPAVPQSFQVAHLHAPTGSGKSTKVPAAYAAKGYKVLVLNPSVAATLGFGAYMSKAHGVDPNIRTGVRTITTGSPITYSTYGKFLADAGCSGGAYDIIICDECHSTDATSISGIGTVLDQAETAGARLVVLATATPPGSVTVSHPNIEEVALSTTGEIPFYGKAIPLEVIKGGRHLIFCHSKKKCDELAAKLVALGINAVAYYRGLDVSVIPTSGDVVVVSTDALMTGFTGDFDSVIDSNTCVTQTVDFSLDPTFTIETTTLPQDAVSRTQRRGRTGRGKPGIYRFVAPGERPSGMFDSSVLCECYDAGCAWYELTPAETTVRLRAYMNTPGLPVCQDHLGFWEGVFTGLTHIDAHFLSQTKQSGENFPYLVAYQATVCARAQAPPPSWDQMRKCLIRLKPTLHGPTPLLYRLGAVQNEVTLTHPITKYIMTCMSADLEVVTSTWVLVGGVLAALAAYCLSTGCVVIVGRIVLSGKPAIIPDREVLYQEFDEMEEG
Outline: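 Enzyme was NS3/4A complex (aa 1027-1711) from genotype 1a BMS strain, carrying C1454S and C1711G mutations plus a three-lysine tail, expressed in E. coli and Ni-NTA/size-exclusion purified to >90% purity.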

[5] = from 1-{[1-(2(S)-tert-butoxycarbonylamino-oct-7-enoyl)-4-(7-methoxy-2-phenylquinolin-4(R)-yloxy)-pyrrolidine-2(S)-carbonyl]-1(R)-amino]-2(S)-vinyl-cyclopropanecarboxylic acid ethyl ester, 14-membered ring, Grubbs catalyst (275 + 225 mg)

| Compound | EC50 [3] [nM] | IC50 [4] [nM] | further results |
| --- | --- | --- | --- |
| CCOC(=O)[C@@]12C[C@H]1C=CCCCCC[C@H](NC(=O)OC(C)(C)C)C(=O)N1C[C@H](Oc3cc(-c4ccccc4)nc4cc(OC)ccc34)C[C@H]1C(=O)N2 |  |  | ring closure, yield of all isomers ([1]; from C=CCCCCC[C@H](NC(=O)OC(C)(C)C)C(=O)N1C[C@H](Oc2cc(-c3ccccc3)nc3cc(OC)ccc23)C[C@H]1C(=O)N[C@]1(C(=O)OCC)C[C@H]1C=C, Grubbs catalyst, 0.829 mM, 83.0 °C, 15.0 h): 75% |
| CCOC(=O)[C@@]12CC1/C=C/CCCC[C@H](C(=O)OC(C)(C)C)C(=O)N1C[C@H](Oc3cc(-c4ccccc4)nc4cc(OC)ccc34)C[C@@]1(N)C(=O)N2 (stereo partly drawn) |  |  | ring closure, isolated yield [2, 5]: 8% |
| CCOC(=O)[C@@]12C[C@H]1C=CCCC[C@H](NC(=O)OC(C)(C)C)C(=O)N1C[C@H](Oc3cc(-c4ccccc4)nc4cc(OC)ccc34)C[C@H]1C(=O)N2 |  |  | ring closure, yield of all isomers ([1]; from C=CCCC[C@H](NC(=O)OC(C)(C)C)C(=O)N1C[C@H](Oc2cc(-c3ccccc3)nc3cc(OC)ccc23)C[C@H]1C(=O)N[C@]1(C(=O)OCC)C[C@H]1C=C, Grubbs catalyst, 2.02 mM, 83.0 °C, 15.0 h): 49% |
| COc1ccc2c(O[C@@H]3C[C@H]4C(=O)N[C@]5(C(=O)NS(=O)(=O)C6CC6)C[C@H]5C=CCCCCC[C@H](NC(=O)OC(C)(C)C)C(=O)N4C3)ccnc2c1 |  |  | ring closure, yield of all isomers ([1]; from C=CCCCCC[C@H](NC(=O)OC(C)(C)C)C(=O)N1C[C@H](Oc2ccnc3cc(OC)ccc23)C[C@H]1C(=O)N[C@]1(C(=O)NS(=O)(=O)C2CC2)C[C@H]1C=C, Grubbs catalyst, 1.02 mM, 83.0 °C, 10.0 h): 1.9% |
| CCOC(=O)[C@@]12C[C@H]1C=CCCCC[C@H](NC(=O)OC(C)(C)C)C(=O)N1C[C@H](Oc3cc(-c4ccccc4)nc4cc(OC)ccc34)C[C@H]1C(=O)N2 |  |  | ring closure, yield of all isomers ([1]; from C=CCCCC[C@H](NC(=O)OC(C)(C)C)C(=O)N1C[C@H](Oc2cc(-c3ccccc3)nc3cc(OC)ccc23)C[C@H]1C(=O)N[C@]1(C(=O)OCC)C[C@H]1C=C, Grubbs catalyst, 0.772 mM, 83.0 °C, 21.0 h): 52%; ring closure, yield of all isomers ([1]; from C=CCCCC[C@H](NC(=O)OC(C)(C)C)C(=O)N1C[C@H](Oc2cc(-c3ccccc3)nc3cc(OC)ccc23)C[C@H]1C(=O)N[C@]1(C(=O)OCC)C[C@H]1C=C, Grubbs catalyst, 2.02 mM, 83.0 °C, 15.0 h): 28% |
| CCOC(=O)[C@@]12C[C@H]1/C=C\CCCC[C@H](NC(=O)OC(C)(C)C)C(=O)N1C[C@H](Oc3cc(-c4ccccc4)nc4cc(OC)ccc34)C[C@H]1C(=O)N2 |  |  | ring closure, isolated yield [2, 5]: 20%; ring closure, isolated yield ([2]; from 1-{[1-(2(S)-tert-butoxycarbonylamino-oct-7-enoyl)-4-(7-methoxy-2-phenylquinolin-4(R)-yloxy)pyrrolidine-2(S)-carbonyl]-1(R)-amino]-2(S)-vinylcyclopropanecarboxylic acid ethyl ester, 14-membered ring, Grubbs catalyst (150 + 140 + 140 mg), 0.77 mM): 52% |
| CCOC(=O)[C@@]12C[C@H]1/C=C\CCCCC[C@H](NC(=O)OC(C)(C)C)C(=O)N1C[C@H](Oc3cc(-c4ccccc4)nc4cc(OC)ccc34)C[C@H]1C(=O)N2 |  |  | ring closure, isolated yield ([2]; from 1-{[1-(2(S)-tert-butoxycarbonylamino-non-8-enoyl)-4-(7-methoxy-2-phenylquinolin-4(R)-yloxy)-pyrrolidine-2(S)-carbonyl]-1(R)-amino]-2 (5)-vinylcyclopropanecarboxylic acid ethyl ester, 15-membered ring, Grubbs catalyst (3 x 150 mg), 0.83 mM): 75% |
| (1S,4R,6S,12S,16R)-7-trans-12-tert-butoxycarbonylamino-16-(7-methoxy-2-phenylquinolin-4-yloxy)-2,13-dioxo-3,14-diazatricyclo[12.3.0.0^4,6]hepta-dec-7-ene-4-carboxylic acid ethyl ester |  |  | ring closure, isolated yield ([2]; 13-membered ring, Grubbs catalyst (2 x 75 mg)): 49% |
| COc1ccc2c(O[C@@H]3C[C@H]4C(=O)N[C@]5(C(=O)NS(=O)(=O)C6CC6)C[C@H]5/C=C\CCCCC[C@H](NC(=O)OC(C)(C)C)C(=O)N4C3)cc(-c3ccccc3)nc2c1 [Compound 9, (1S,4R,6S,14S,18R)-7-cis-[4-Cyclopropanesulfonylamino-carbonyl-18-(7-methoxy-2-phenylquinolin-4-yloxy)-2,15-dioxo-3,16-diazatricyclo[14.3.0.0^4,6]nonadec-7-en-14-yl]carbamic acid tert-butyl ester] | < 50 | < 50 |  |
| COc1ccc2c(O[C@@H]3C[C@H]4C(=O)N[C@]5(C(=O)NS(=O)(=O)C6CC6)CC5CCCCCC[C@H](NC(=O)OC5CCCC5)C(=O)N4C3)cc(-c3ccccc3)nc2c1 (stereo partly drawn) [Compound 25, (1S,4R,6R,14S,17R)-[4-Cyclopropanesulfonylaminocarbonyl-17-(7-methoxy-2-phenylquinolin-4-yloxy)-2,14-dioxo-3,15-diazatricyclo[13.3.0.0^4,6]octa-dec-13-yl]carbamic acid cyclopentyl ester] | < 50 | < 50 |  |
| CCOC(=O)[C@@]12C[C@H]1/C=C/CC[C@H](NC(=O)OC(C)(C)C)C(=O)N1C[C@H](Oc3cc(-c4ccccc4)nc4cc(OC)ccc34)C[C@H]1C(=O)N2 |  |  | ring closure, isolated yield ([2]; from 1-{[1-(2(S)-tert-butoxycarbonylamino-hex-5-enoyl)-4-(7-methoxy-2-phenyl-quinolin-4(R)-yloxy)-pyrroiidine-2(S)-carbonyl]-1(R)-amino}-2(S)-vinyl-cyclopropanecarboxylic acid ethyl ester, 12-membered ring, Grubbs catalyst (2 x 70 mg), 2.02 mM): 46% |
| COc1ccc2c(O[C@@H]3C[C@H]4C(=O)N[C@]5(C(=O)NS(=O)(=O)C6CC6)C[C@H]5CCCCCC[C@H](N)C(=O)N4C3)cc(-c3ccccc3)nc2c1 [Compound 14, (1S,4R,6R,13S,17R)-Cyclopropanesulfonic acid [13-amino-17-(7-methoxy-2-phenylquinolin-4-yloxy)-2,14-dioxo-3,15-diazatricyclo[13.3.0.0^4,6]-octadecane-4-carbonyl]amide dihydrochloride] | < 50 | < 50 |  |
| CCOC(=O)[C@@]12C[C@H]1C=CCC[C@H](NC(=O)OC(C)(C)C)C(=O)N1C[C@H](Oc3cc(-c4ccccc4)nc4cc(OC)ccc34)C[C@H]1C(=O)N2 |  |  | ring closure, yield of all isomers ([1]; from C=CCC[C@H](NC(=O)OC(C)(C)C)C(=O)N1C[C@H](Oc2cc(-c3ccccc3)nc3cc(OC)ccc23)C[C@H]1C(=O)N[C@]1(C(=O)OCC)C[C@H]1C=C, Grubbs catalyst, 2.02 mM, 83.0 °C, 15.0 h): 46% |
| COc1ccc2c(O[C@@H]3C[C@H]4C(=O)N[C@]5(C(=O)NS(=O)(=O)C6CC6)CC5/C=C\CCCSC[C@H](NC(=O)OC(C)(C)C)C(=O)N4C3)cc(-c3ccccc3)nc2c1 (stereo partly drawn) [Compound 31, (1S,4R,6S,14S,18R)-7-cis-[4-Cyclopropanesulfonylaminocarbonyl-18-(7-methoxy-2-phenyl-quinolin-4-yloxy)-2,15-dioxo-12-thia-3,16-diazatricyclo[14.3.0.0^4,6]nonadec-7-en-14-yl]-carbamic acid tert-butyl ester] | < 50 | < 50 |  |
| COc1ccc2c(O[C@@H]3C[C@H]4C(=O)N[C@]5(C(=O)NS(=O)(=O)C6CC6)C[C@H]5CCCCCCC[C@H](NC(=O)OC(C)(C)C)C(=O)N4C3)cc(-c3ccccc3)nc2c1 [Compound 15, (1S,4R,6R,14S,18R)-[4-Cyclopropanesulfonylaminocarbonyl-18-(7-methoxy-2-phenylquinolin-4-yloxy)-2,15-dioxo-3,16-diazatricyclo-[14.3.0.0^4,6]nonadec-14-yl]carbamic acid tert-butyl ester] | < 50 | < 50 |  |
| CCOC(=O)[C@@]12C[C@H]1C=CCCCSC[C@@H](NC(=O)OC(C)(C)C)C(=O)N1C[C@H](Oc3cc(-c4ccccc4)nc4cc(OC)ccc34)C[C@H]1C(=O)N2 |  |  | ring closure, yield of all isomers ([1]; from C=CCCCSC[C@@H](NC(=O)OC(C)(C)C)C(=O)N1C[C@H](Oc2cc(-c3ccccc3)nc3cc(OC)ccc23)C[C@H]1C(=O)N[C@]1(C(=O)OCC)C[C@H]1C=C, Grubbs II (tricyclohexylphosphine[1,3-bis(2,4,6-trimethylphenyl)-4,5-dihydroimidazol-2-ylidene][benzylidene]ruthenium(IV) dichloride), 3.48 mM, 45.0 °C, 21.0 h): 42% |
| COc1ccc2c(O[C@@H]3C[C@H]4C(=O)N[C@]5(C(=O)NS(=O)(=O)C6CC6)CC5/C=C\CCCS(=O)(=O)C[C@H](NC(=O)OC(C)(C)C)C(=O)N4C3)cc(-c3ccccc3)nc2c1 (stereo partly drawn) [Compound 32, (1S,4R,6S,14S,18R)-7-cis-[4-Cyclopropanesulfonylaminocarbonyl-18-(7-methoxy-2-phenyl-quinolin-4-yloxy)-2,12,12,15-tetraoxo-12,16-thia-3,16-diazatricyclo[14.3.0.0^4,6]nonadec-7-en-14-yl]carbamic acid tert-butyl ester] | < 50 | < 50 |  |
| COc1ccc2c(O[C@@H]3C[C@H]4C(=O)N[C@]5(C(=O)NS(=O)(=O)C6CC6)CC5CCCCCC[C@H](NC(=O)CC5CC5)C(=O)N4C3)cc(-c3ccccc3)nc2c1 (stereo partly drawn) [Compound 24, (1S,4R,6R,14S,17R)-N-[4-Cyclopropanesulfonylaminocarbonyl-17-(7-methoxy-2-phenylquinolin-4-yloxy)-2,14-dioxo-3,15-diazatricyclo[13.3.0.0^4,6]-octadec-13-yl]-2-cyclopropylacetamide] | < 50 | < 50 |  |

— patent publication US6867185B2 (Bristol-Myers Squibb Company, priority 2001, dated 2005)
